According to patent US20240131028A1, “CHEMOVACCINATION AGAINST PLASMODIUM INFECTION WITH SELECTIVE PLASMEPSIN X INHIBITORS” (Merck Sharp & Dohme LLC, priority 2021, published 2024):
Read-outs that look alike come from different tables or passages of the source.

Test system: ring stage parasites (Pf)
Experiment: Parasite lactate dehydrogenase (LDH) growth assay (Parasite Assay, PfLDH Assay)
Assay type: cell-based, P. falciparum
Conditions: Table 3, 72 hours growth, LDH readout, read-out: EC50

| Structure (SMILES) | EC50 (Plasmodium falciparum, 72 h) | EC50 |
| --- | --- | --- |
| CC[C@]1(C)CC(=O)N([C@H](CCOC)[C@H]2C[C@@H]2C(=O)N[C@H]2C[C@H](C(F)(F)F)Oc3ccccc32)C(=N)N1 [Example 62B] | 0.8 nM | – |
| CC[C@]1(C)CC(=O)N([C@H](c2cccnc2)[C@H]2C[C@@H]2C(=O)N[C@H]2CC(C)(C)Oc3ccccc32)C(=N)N1 [Example 63] | 1.2 nM | – |
| CC[C@]1(C)CC(=O)N([C@H](CCOC)[C@H]2C[C@@H]2C(=O)N[C@H]2CC(C)(C)Oc3ccccc32)C(=N)N1 [Example 64A] | 2.3 nM | – |
| CC[C@]1(C)CC(=O)N([C@@H](CCOC)[C@H]2C[C@@H]2C(=O)N[C@H]2CC(C)(C)Oc3ccccc32)C(=N)N1 [Example 64B] | 195 nM | – |
| COc1ccc2c(c1)OC(C)(C)C[C@@H]2NC(=O)[C@H]1C[C@@H]1[C@H](c1cccnc1)N1C(=N)NC(C)(C)CC1=O [Example 65A] | – | 2.8 nM |
| COc1ccc2c(c1)OC(C)(C)C[C@@H]2NC(=O)[C@H]1C[C@@H]1[C@H](c1cccnc1)N1C(=N)NC(C)(C)CC1=O [Example 65B] | – | 8 nM |
| CC[C@]1(C)CC(=O)N([C@H](c2cncc(F)c2)[C@H]2C[C@@H]2C(=O)N[C@@H]2c3ccccc3OC(C)(C)[C@H]2O)C(=N)N1 [Example 66] | 2.6 nM | – |
| CC[C@@]1(C)CC(=O)N(C(c2cncc(F)c2)[C@H]2C[C@@H]2C(=O)N[C@H]2CC(C)(C)Oc3ccccc32)C(=N)N1 (stereo partly drawn) [Example 67A] | 0.9 nM | – |
| CC[C@@]1(C)CC(=O)N(C(c2cncc(F)c2)[C@H]2C[C@@H]2C(=O)N[C@H]2CC(C)(C)Oc3ccccc32)C(=N)N1 (stereo partly drawn) [Example 67B] | – | 0.6 nM |
| CC[C@]1(C)CC(=O)N([C@H](c2cncc(F)c2)[C@H]2C[C@@H]2C(=O)N[C@H]2C[C@H](C(F)(F)F)Oc3ccccc32)C(=N)N1 [Example 68] | 0.3 nM | – |
| CC[C@@]1(C)CC(=O)N(C(c2cncc(F)c2)[C@H]2C[C@@H]2C(=O)N[C@H]2CC(C)(C)Oc3ccc(F)cc32)C(=N)N1 (stereo partly drawn) [Example 69A] | – | 1 nM |
| CC[C@@]1(C)CC(=O)N(C(c2cncc(F)c2)[C@H]2C[C@@H]2C(=O)N[C@H]2CC(C)(C)Oc3ccc(F)cc32)C(=N)N1 (stereo partly drawn) [Example 69B] | – | 1.9 nM |
| CC[C@@]1(C)CC(=O)N(C(c2cncc(F)c2)[C@H]2C[C@@H]2C(=O)N[C@H]2CC(C)(C)Oc3ccc(F)cc32)C(=N)N1 (stereo partly drawn) [Example 69C] | – | 0.8 nM |
| CC[C@@]1(C)CC(=O)N(C(c2cncc(F)c2)[C@H]2C[C@@H]2C(=O)N[C@H]2CC(C)(C)Oc3ccc(F)cc32)C(=N)N1 (stereo partly drawn) [Example 69D] | – | 0.3 nM |
| CC[C@@]1(C)CC(=O)N(C(c2cncc(F)c2)[C@H]2C[C@@H]2C(=O)N[C@H]2CC(C)(C)Oc3ccc(F)cc32)C(=N)N1 (stereo partly drawn) [Example 69E] | – | 300 nM |
| COCC[C@H]([C@H]1C[C@@H]1C(=O)N[C@@H]1CC(C)(C)Oc2cc(OC)ccc21)N1C(=N)NC(C)(C)CC1=O [Example 70A] | 77 nM | – |
| COCC[C@H]([C@H]1C[C@@H]1C(=O)N[C@H]1CC(C)(C)Oc2cc(OC)ccc21)N1C(=N)NC(C)(C)CC1=O [Example 70B] | 19 nM | – |
| CC1(C)CC(=O)N(C[C@H]2C[C@@H]2C(=O)N[C@H]2CC(C)(C)Oc3ccc(F)cc32)C(=N)N1 [Example 71] | 125 nM | – |
| COCC[C@H]([C@H]1C[C@@H]1C(=O)N[C@@H]1CC(C)(C)Oc2ccc(F)cc21)N1C(=N)NC(C)(C)CC1=O [Example 72A] | 11 nM | – |
| COCC[C@H]([C@H]1C[C@@H]1C(=O)N[C@H]1CC(C)(C)Oc2ccc(F)cc21)N1C(=N)NC(C)(C)CC1=O [Example 72B] | 2.5 nM | – |
| COc1cccc2c1[C@@H](NC(=O)[C@H]1C[C@@H]1CN1C(=N)NC(C)(C)CC1=O)CC(C)(C)O2 [Example 73] | 192 nM | – |

| Structure (SMILES) | EC50 (Plasmodium falciparum, 72 h) | EC50 |
| --- | --- | --- |
| COCC[C@H]([C@H]1C[C@@H]1C(=O)N[C@@H]1CC(C)(C)Oc2cccc(OC)c21)N1C(=N)NC(C)(C)CC1=O [Example 74A] | 33 nM | – |
| COCC[C@H]([C@H]1C[C@@H]1C(=O)N[C@H]1CC(C)(C)Oc2cccc(OC)c21)N1C(=N)NC(C)(C)CC1=O [Example 74B] | 3.1 nM | – |
| CCC1(C)CC(NC(=O)[C@H]2C[C@@H]2[C@@H](CCOC)N2C(=N)NC(C)(C)CC2=O)c2ccccc2O1 (stereo partly drawn) [Example 75A] | 8.2 nM | – |
| COCC[C@H]([C@H]1C[C@@H]1C(=O)NC1CC(C)(C)Oc2cc(F)ccc21)N1C(=N)NC(C)(C)CC1=O (stereo partly drawn) [Example 76A] | 17 nM | – |
| COCC[C@H]([C@H]1C[C@@H]1C(=O)NC1CC(C)(C)Oc2cc(F)ccc21)N1C(=N)NC(C)(C)CC1=O (stereo partly drawn) [Example 76B] | – | 15 nM |
| CC1(C)CC(=O)N([C@H](c2cccnc2)[C@H]2C[C@@H]2C(=O)NC2CC(C)(C)Oc3cc(F)ccc32)C(=N)N1 (stereo partly drawn) [Example 77A] | 1.7 nM | – |
| CC1(C)CC(=O)N([C@H](c2cccnc2)[C@H]2C[C@@H]2C(=O)NC2CC(C)(C)Oc3cc(F)ccc32)C(=N)N1 (stereo partly drawn) [Example 77B] | – | 2.3 nM |
| CCC1(C)C[C@H](NC(=O)[C@H]2C[C@@H]2CN2C(=N)NC(C)(C)CC2=O)c2ccccc2O1 (stereo partly drawn) [Example 78] | 300 nM | – |
| CC(C)C1(C)CC(NC(=O)[C@H]2C[C@@H]2CN2C(=N)NC(C)(C)CC2=O)c2ccccc2O1 (stereo partly drawn) [Example 79A] | 255 nM | – |
| COCC[C@H]([C@H]1C[C@@H]1C(=O)N[C@H]1CC(C)(C)Oc2cc(C)ccc21)N1C(=N)NC(C)(C)CC1=O [Example 83A] | 6.6 nM | – |
| COCC[C@H]([C@H]1C[C@@H]1C(=O)N[C@@H]1CC(C)(C)Oc2cc(C)ccc21)N1C(=N)NC(C)(C)CC1=O [Example 83B] | 26 nM | – |
| Cc1ccc2c(c1)OC(C)(C)C[C@@H]2NC(=O)[C@H]1C[C@@H]1CN1C(=N)NC(C)(C)CC1=O [Example 84] | 289 nM | – |
| Cc1ccc2c(c1)OC(C)(C)C[C@@H]2NC(=O)[C@H]1C[C@@H]1[C@@H](c1cccnc1)N1C(=N)NC(C)(C)CC1=O [Example 85A] | 2.4 nM | – |
| Cc1ccc2c(c1)OC(C)(C)C[C@H]2NC(=O)[C@H]1C[C@@H]1[C@@H](c1cccnc1)N1C(=N)NC(C)(C)CC1=O [Example 85B] | 0.9 nM | – |
| CC1(C)CC(=O)N([C@H](c2cccnc2)[C@H]2C[C@@H]2C(=O)N[C@@H]2CC(C)(C)Oc3cccc(F)c32)C(=N)N1 [Example 86A] | 2.2 nM | – |
| CC1(C)CC(=O)N([C@H](c2cccnc2)[C@H]2C[C@@H]2C(=O)N[C@@H]2CC(C)(C)Oc3cccc(F)c32)C(=N)N1 [Example 86B] | – | 2.8 nM |
| CC1(C)CC(=O)N(C[C@H]2C[C@@H]2C(=O)N[C@H]2CC(C)(C)Oc3cccc(F)c32)C(=N)N1 [Example 87] | 160 nM | – |
| COCC[C@H]([C@H]1C[C@@H]1C(=O)N[C@H]1CC(C)(C)Oc2cccc(F)c21)N1C(=N)NC(C)(C)CC1=O [Example 88A] | 5.2 nM | – |
| COCC[C@H]([C@H]1C[C@@H]1C(=O)N[C@@H]1CC(C)(C)Oc2cccc(F)c21)N1C(=N)NC(C)(C)CC1=O [Example 88B] | 10 nM | – |
| COCC[C@H]([C@H]1C[C@@H]1C(=O)N[C@H]1CC(C)(C)Oc2cc(Cl)ccc21)N1C(=N)NC(C)(C)CC1=O [Example 89A] | 5.6 nM | – |
| COCC[C@H]([C@H]1C[C@@H]1C(=O)N[C@@H]1CC(C)(C)Oc2cc(Cl)ccc21)N1C(=N)NC(C)(C)CC1=O [Example 89B] | 22 nM | – |
